In PubChem BioAssay (NCI):
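Five concentrations, 48 hours, 96-well plates. At the GI50, growth is halved. Definition used: TGI = concentration required for complete inhibition of growth.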

Legend:
Assay in all cases: NCI-60 cell line screen, 48 h
786-0 renal = system: 786-0 renal
A498 renal = system: A498 renal
A549 NSCLC = system: A549 NSCLC
ACHN renal = system: ACHN renal
BT-549 breast = system: BT-549 breast
CAKI-1 renal = system: CAKI-1 renal
CCRF-CEM leukemia = system: CCRF-CEM leukemia
COLO 205 colon = system: COLO 205 colon
DU-145 prostate = system: DU-145 prostate
EKVX NSCLC = system: EKVX NSCLC
HCC-2998 colon = system: HCC-2998 colon
HCT-116 colon = system: HCT-116 colon
HCT-15 colon = system: HCT-15 colon
HL-60(TB) leukemia = system: HL-60(TB) leukemia
HOP-62 NSCLC = system: HOP-62 NSCLC
HOP-92 NSCLC = system: HOP-92 NSCLC
HS 578T breast = system: HS 578T breast
HT29 colon = system: HT29 colon
IGROV1 ovarian = system: IGROV1 ovarian
K-562 leukemia = system: K-562 leukemia
KM12 colon = system: KM12 colon
LOX IMVI melanoma = system: LOX IMVI melanoma
M14 melanoma = system: M14 melanoma
MALME-3M melanoma = system: MALME-3M melanoma
MCF7 breast = system: MCF7 breast
MDA-MB-231 breast = system: MDA-MB-231 breast
MDA-MB-435 = system: MDA-MB-435
MOLT-4 leukemia = system: MOLT-4 leukemia
NCI-H226 lung = system: NCI-H226 lung
NCI-H23 lung = system: NCI-H23 lung
NCI-H460 lung = system: NCI-H460 lung
NCI-H522 lung = system: NCI-H522 lung
NCI/ADR-RES ovarian = system: NCI/ADR-RES ovarian
OVCAR-3 ovarian = system: OVCAR-3 ovarian
OVCAR-4 ovarian = system: OVCAR-4 ovarian
OVCAR-5 ovarian = system: OVCAR-5 ovarian
OVCAR-8 ovarian = system: OVCAR-8 ovarian
PC-3 prostate = system: PC-3 prostate
RPMI-8226 leukemia = system: RPMI-8226 leukemia
RXF 393 renal = system: RXF 393 renal
SF-268 CNS = system: SF-268 CNS
SF-295 CNS = system: SF-295 CNS
SF-539 CNS = system: SF-539 CNS
SK-MEL-2 melanoma = system: SK-MEL-2 melanoma
SK-MEL-28 melanoma = system: SK-MEL-28 melanoma
SK-MEL-5 melanoma = system: SK-MEL-5 melanoma
SK-OV-3 ovarian = system: SK-OV-3 ovarian
SN12C renal = system: SN12C renal
SNB-19 CNS = system: SNB-19 CNS
SNB-75 CNS = system: SNB-75 CNS
SR leukemia = system: SR leukemia
SW-620 colon = system: SW-620 colon
T-47D breast = system: T-47D breast
TK-10 renal = system: TK-10 renal
U251 CNS = system: U251 CNS
UACC-257 melanoma = system: UACC-257 melanoma
UACC-62 melanoma = system: UACC-62 melanoma
UO-31 renal = system: UO-31 renal

Compound: Cc1cc2nc3c4cc(C=O)ccc4n(CCN(C)C)c3nc2cc1C
- GI50 (786-0 renal): 1430 nM
- TGI (786-0 renal): 9960 nM
- GI50 (A498 renal): 500 nM
- TGI (A498 renal): 2090 nM
- GI50 (A549 NSCLC): 851 nM
- TGI (A549 NSCLC): 10400 nM
- GI50 (ACHN renal): 426 nM
- TGI (ACHN renal): 4560 nM
- GI50 (BT-549 breast): 2150 nM
- TGI (BT-549 breast): 5350 nM
- GI50 (CAKI-1 renal): 1700 nM
- TGI (CAKI-1 renal): 9690 nM
- GI50 (CCRF-CEM leukemia): 1140 nM
- TGI (CCRF-CEM leukemia): 7770 nM
- GI50 (COLO 205 colon): 574 nM
- TGI (COLO 205 colon): 2100 nM
- GI50 (DU-145 prostate): 3030 nM
- TGI (DU-145 prostate): 10600 nM
- GI50 (EKVX NSCLC): 2040 nM
- TGI (EKVX NSCLC): 6270 nM
- GI50 (HCC-2998 colon): 1330 nM
- TGI (HCC-2998 colon): 3140 nM
- GI50 (HCT-116 colon): 484 nM
- TGI (HCT-116 colon): 9100 nM
- GI50 (HCT-15 colon): 1360 nM
- TGI (HCT-15 colon): 7240 nM
- GI50 (HL-60(TB) leukemia): 1350 nM
- TGI (HL-60(TB) leukemia): 5840 nM
- GI50 (HOP-62 NSCLC): 1540 nM
- TGI (HOP-62 NSCLC): 10100 nM
- GI50 (HOP-92 NSCLC): 1490 nM
- TGI (HOP-92 NSCLC): 7350 nM
- GI50 (HS 578T breast): 2250 nM
- TGI (HS 578T breast): 6700 nM
- GI50 (HT29 colon): 656 nM
- TGI (HT29 colon): 3740 nM
- GI50 (IGROV1 ovarian): 1520 nM
- TGI (IGROV1 ovarian): 6390 nM
- GI50 (K-562 leukemia): 820 nM
- TGI (K-562 leukemia): 18600 nM
- GI50 (KM12 colon): 2120 nM
- TGI (KM12 colon): 10000 nM
- GI50 (LOX IMVI melanoma): 532 nM
- TGI (LOX IMVI melanoma): 2500 nM
- GI50 (M14 melanoma): 1300 nM
- TGI (M14 melanoma): 2950 nM
- GI50 (MALME-3M melanoma): 1290 nM
- TGI (MALME-3M melanoma): 2760 nM
- GI50 (MCF7 breast): 1820 nM
- TGI (MCF7 breast): 5990 nM
- GI50 (MDA-MB-231 breast): 1830 nM
- TGI (MDA-MB-231 breast): 6990 nM
- GI50 (MDA-MB-435): 1660 nM
- TGI (MDA-MB-435): 3070 nM
- GI50 (MOLT-4 leukemia): 389 nM
- TGI (MOLT-4 leukemia): 10300 nM
- GI50 (NCI-H226 lung): 2070 nM
- TGI (NCI-H226 lung): 7320 nM
- GI50 (NCI-H23 lung): 1490 nM
- TGI (NCI-H23 lung): 4450 nM
- GI50 (NCI-H460 lung): 1190 nM
- TGI (NCI-H460 lung): 10100 nM
- GI50 (NCI-H522 lung): 1870 nM
- TGI (NCI-H522 lung): 4910 nM
- GI50 (NCI/ADR-RES ovarian): 607 nM
- TGI (NCI/ADR-RES ovarian): 6970 nM
- GI50 (OVCAR-3 ovarian): 1970 nM
- TGI (OVCAR-3 ovarian): 6580 nM
- GI50 (OVCAR-4 ovarian): 2120 nM
- TGI (OVCAR-4 ovarian): 7750 nM
- GI50 (OVCAR-5 ovarian): 2170 nM
- TGI (OVCAR-5 ovarian): 7230 nM
- GI50 (OVCAR-8 ovarian): 777 nM
- TGI (OVCAR-8 ovarian): 10900 nM
- GI50 (PC-3 prostate): 1620 nM
- TGI (PC-3 prostate): 5710 nM
- GI50 (RPMI-8226 leukemia): 1910 nM
- TGI (RPMI-8226 leukemia): 5160 nM
- GI50 (RXF 393 renal): 1060 nM
- TGI (RXF 393 renal): 2740 nM
- GI50 (SF-268 CNS): 2050 nM
- TGI (SF-268 CNS): 6630 nM
- GI50 (SF-295 CNS): 696 nM
- TGI (SF-295 CNS): 5690 nM
- GI50 (SF-539 CNS): 1510 nM
- TGI (SF-539 CNS): 3870 nM
- GI50 (SK-MEL-2 melanoma): 1760 nM
- TGI (SK-MEL-2 melanoma): 3650 nM
- GI50 (SK-MEL-28 melanoma): 1780 nM
- TGI (SK-MEL-28 melanoma): 3650 nM
- GI50 (SK-MEL-5 melanoma): 1690 nM
- TGI (SK-MEL-5 melanoma): 3330 nM
- GI50 (SK-OV-3 ovarian): 2350 nM
- TGI (SK-OV-3 ovarian): 10900 nM
- GI50 (SN12C renal): 1030 nM
- TGI (SN12C renal): 8040 nM
- GI50 (SNB-19 CNS): 1650 nM
- TGI (SNB-19 CNS): 9090 nM
- GI50 (SNB-75 CNS): 1980 nM
- TGI (SNB-75 CNS): 5000 nM
- GI50 (SR leukemia): 435 nM
- TGI (SR leukemia): 11100 nM
- GI50 (SW-620 colon): 479 nM
- TGI (SW-620 colon): 4310 nM
- GI50 (T-47D breast): 2140 nM
- TGI (T-47D breast): 7040 nM
- GI50 (TK-10 renal): 1970 nM
- TGI (TK-10 renal): 6590 nM
- GI50 (U251 CNS): 1650 nM
- TGI (U251 CNS): 10100 nM
- GI50 (UACC-257 melanoma): 1960 nM
- TGI (UACC-257 melanoma): 4800 nM
- GI50 (UACC-62 melanoma): 1750 nM
- TGI (UACC-62 melanoma): 3700 nM
- GI50 (UO-31 renal): 846 nM
- TGI (UO-31 renal): 8780 nM
